Results reported in US4772603A, “Method for treating congestive heart failure, angina, occlusive peripheral vascular disease or cerebral vascular disease in mammals” (Beecham Group p.l.c., priority 1984, dated 1988).
Read-outs that look alike come from different tables or passages of the source.

Assays:
hypoxic skeletal muscle = test: Effect of compounds on skeletal muscle oxygen tension in the rat (with reduction in mean arterial blood pressure); assay type: in vivo; conditions: for CHANGE IN PO2 (average change in muscle PO2 produced by treatment) / REDUCTION IN MABP (Mean Arterial Blood Pressure): mean±S.D., 6 rats/treatment; for oxygen tension (PO2) in hypoxic skeletal muscle: at approximately a hypotensive dose
Description: Values are mean±S.D.; 6 rats/treatment
MABP=Mean Arterial Blood Pressure
Change in PO2 =the average change in muscle PO2 produced by treatment

Rat isolated portal vein = test: Rat isolated portal vein: inhibition of spontaneous contractions and of contractions due to added calcium; design: species or system rat (male Sprague Dawley); conditions: for IC50: Rattus norvegicus, 0.25 h, 15 min contact time
Description: (1) Rat isolated portal vein. Male Sprague Dawley rats (250-350 g) were killed by cervical dislocation. Portal veins (2-3 cm in length) were set up under 0.8-1 g tension in a 10 ml organ bath containing Krebs-Henseleit solution, at 37° C., of the following composition (mM): NaCl 118, NaHCO3 25, glucose 5, KH2 PO4 1.18, KCl 4.69, MgSO4 0.59, CaCl2 ·H2 O 1.87. The tissue was aerated with a 95% oxygen and 5% carbon dioxide mixture. Isometric tension was recorded using a Devices strain gauge and recorder. Each preparation was allowed 1h to equilibrate before the addition of test compound. The ability of a compound to inhibit the contractions due to added calcium (3 mM CaCl2) was determined in tissues bathed in Krebs-Henseleit solution containing 0.05 mM CaCl2 (in order to reduce spontaneous contractions). Then percentage inhibition (mean±s.e.m.; 6-9 tissues) of the amplitude of the spontaneous contractions, and contractions due to added calcium, was determined after 15 min contact time with test compound.
IC50 is concentration of compound reducing contractions by 50%; parenthesis indicate 95% fiducial limits.

[1] = test system: Rabbit isolated mesenteric artery; test: Rabbit isolated mesenteric artery: inhibition of contractions due to 30 and 90 mM KCl; design: species or system rabbit (male New Zealand White)
Description: (2) Rabbit isolated mesenteric artery. Mesenteric arteries (3 mm rings) were removed from male New Zealand White rabbits and mounted, at a resting tension of 1.5-2.0 g, in a 10 ml organ bath containing a Ringer solution, at 37° C., of the following composition (mM): NaCl 120.8; KCl 5.9; CaCl2 2.5; MgCl2 1.2; HEPES 5.8; glucose 11.5. The bathing solution was bubbled with a 95% oxygen and 5% carbon dioxide mixture. Each preparation was allowed 1-11/2 h to equilibrate before the addition of either 30 or 90 mM KCl to contract the tissue. The ability of test compound to relax the sustained contraction due to KCl was determined by assessing the % reduction (mean±s.e.m.; 4-9 tissues) produced by varying concentrations of test compound.
IC50 is the concentration of compound 1 halving the contraction due to KCl; parenthesis indicate 95% fiducial limits.

Compound | CHANGE IN PO2 (average change in muscle PO2 produced by treatment) (hypoxic skeletal muscle; 0.3 mg/kg intraduodenally) | REDUCTION IN MABP (Mean Arterial Blood Pressure) (hypoxic skeletal muscle; 0.3 mg/kg intraduodenally) [MMHG] | oxygen tension (PO2) in hypoxic skeletal muscle (hypoxic skeletal muscle) | IC50 (Rat isolated portal vein; contractions due to added calcium (3 mM CaCl2), 0.05 mM CaCl2 Krebs-Henseleit, 95% fiducial limits (0.87-3.5), read-out: IC50 Ca^2+ (3 mM) (concentration reducing contractions by 50%)) [nM] | IC50 (Rat isolated portal vein; spontaneous contractions, 95% fiducial limits (0.67-7.8), read-out: IC50 Spontaneous (concentration reducing contractions by 50%)) [nM] | inhibitor of spontaneous contractions and of those due to added calcium (comparison in words) (Rat isolated portal vein; spontaneous versus added calcium contractions) | antagonism of contractions due to a partially / fully depolarising concentration of potassium ([1]; 30 mM (partially) and 90 mM (fully depolarising) KCl) | IC50 ([1]; Oryctolagus cuniculus, read-out: IC50 90 mM KCl (concentration halving the contraction due to KCl)) [µM] | effect against a high concentration of KCl ([1]; high KCl (90 mM)) | CHANGE IN PO2 (average change in muscle PO2 produced by treatment) (hypoxic skeletal muscle; 1.0 mg/kg intraduodenally) | REDUCTION IN MABP (Mean Arterial Blood Pressure) (hypoxic skeletal muscle; 1.0 mg/kg intraduodenally) [MMHG]
CC1(C)Oc2ccc(C#N)cc2[C@@H](N2CCCC2=O)[C@@H]1O (relative stereo) [Compound 1, 6-cyano-3,4-dihydro-2,2-dimethyl-trans-4-(2-oxo-1-pyrrolidinyl)-2H-benzo[b]pyran-3-ol] | +8.7 ± 2.3 TORR | 44 ± 4 | large increase | 150 | 120 | equipotent | antagonises the contractions due to a partially, but not a fully, depolarising concentration of potassium | > 10 | effectiveness | – | –
CCN(C(C)=O)[C@@H]1c2cc(C#N)ccc2OC(C)(C)[C@H]1O (relative stereo) [Compound 2, trans-4-N-acetylethylamino-6-cyano-3,4-dihydro-2,2-dimethyl-2H-benzo[b]pyran-3-ol] | – | – | large increase | – | – | – | – | – | – | +8.2 ± 3.7 TORR | 36 ± 4
